Results as given in patent US20240181089A1, “PHARMACEUTICAL POLYMER CONJUGATES” (priority 2021, published 2024).

Assays:
4T1 cells [1] = assay: Apoptosis-necrosis flow cytometry with annexinV (A5) and propidium iodide (PI); format: cell-based, murine
[2] = test system: 4T1 murine triple negative breast cancer cell line; format: cell-based; conditions: 24 h treatment, LDH release, 4T1 cells, expressed in zinc concentration
Description: 24 h in vitro cytotoxicity was tested for each compound against 4T1 murine triple negative breast cancer cell line in obtaining their IC5024h values using lactate dehydrogenase release assay (LDH assay), which were expressed in zinc concentration (μM Zn) units for comparative viewing.

4T1 cells [3] = assay: Confocal microscopy mode-of-action test (cell detachment, anti-AIF, TUNEL, Hoechst) with or without PJ34; format: cell-based, murine; conditions: 1.5 h treatment
Description: In addition to the cytotoxicity featuring the simultaneous uptake of PI and A5, Fatokun et al. previously defined PARP-dependent nuclear translocation of AIF and subsequent generation of massive DNA breaks as the hallmark features of parthanatos (Parthanatos: mitochondrial-linked mechanisms and therapeutic opportunities. British journal of pharmacology 171, 2000-2016 (2014)). To investigate whether the observed PI+A5 + necrotic 4T1 cell deaths by the zinc compounds (FIG. 5B and 5C) accompanied these features, we performed confocal microscopy studies after 1.5 h treatment for assessing the occurrence of PARP-dependent cytotoxicity, nuclear AIF translocation, and DNA breaks using fluorescent probes of anti-AIF, TUNEL, and Hoechst 33342 (Hoechst) DNA stain upon co-incubation with a potent PARP1 and PARP2 inhibitor PJ34. Assessment of PAR-polymer content, however, could not be incorporated into this experiment due to unavailability of sufficiently sensitive fluorescent probe for PAR-polymer during this study. Also, any longer treatment time could not be applied to this experiment due to extensive cytotoxic changes observed in the C010DS-Zn treated groups.

[4] = test system: folate receptor (FR) isoforms FR-α and FR-β; conditions: Vaitilingam et al.; cited from earlier work
cancer cell lines = conditions: NPL6; cited from earlier work
[5] = concentration-resolved study after 3 h treatment

## O=S(=O)([O-])[O-].[Zn+2] [zinc sulfate]
4T1 cells [1]; [5]
  A5+ only apoptotic cell deaths: without notable increases
  proportion of PI+ only necrosis: 18%
  proportion of PI+A5+ necrosis: 4%
4T1 cells [1]; concentration-resolved study after 3 h treatment, maximum
  PI+ only or PI+A5+ necrotic cell death: ≤ 26%
4T1 cells [1]; time resolved study, 450 μM Zn
  time after treatment at which mainly PI+A5+ and minor PI+ only necrotic cell death was induced: 1.5 h
[2]
  IC50: 80.7 µM
4T1 cells [3]
  nuclear AIF translocation and DNA damages (TUNEL): failed to elicit significantly higher nuclear AIF translocation nor the DNA damages
4T1 cells [3]; all concentrations tested
  cell detachment: did not cause marked cell detachment

## CN(CC1CNc2nc(N)[nH]c(=O)c2N1C)c1ccc(C(=O)N[C@@H](CCC(=O)O)C(=O)O)cc1 (some centres unmarked) [DMTHF, N^5, N^10-dimethyl tetrahydrofolate]
[4]
  folate receptor isoform preference: higher affinity for FR-α over FR-β

## zinc pyrithione [ZnPyr2]
Cancer cell lines
  PARP cleavage: complete PARP cleavage
  mode of cell death: induced apoptosis in cancer cell lines
